Assay results: patent publication US7820693B2, “1-(2H)-isoquinolone derivative” (Chugai Seiyaku Kabushiki Kaisha, priority 2005, dated 2010)

Test system: human colon cancer cell line HCT116
Experiment: Measurement of cell growth inhibitory activity (Cell Counting Kit-8)
Type: cell-based
Conditions: HCT-116, 96 h, HCT116, 2,000 cells/well, cultured 4 days
Description: Cancer cell growth inhibitory activity was measured using Cell Counting Kit-8 manufactured by Dojindo Laboratories. The human colon cancer cell line HCT116 obtained from American Type Culture Collection (Virginia, U.S.A) was inoculated in a 96-well culture plate at a concentration of 2,000 cells/well. Thereafter, a certain concentration of compound was added thereto, and the obtained mixture was then cultured at 37° C. in 5% CO2, 95% air for 4 days. On the 4th day of the culture, a Cell Counting Kit-8 solution was added to the culture product, and absorbance (measurement wavelength: 450 nm; reference wavelength: 615 nm) was measured in accordance with protocols included with the kit. Thereafter, 50% growth inhibitory concentration (IC50) was calculated.

Row | IC50 [nM] | Structure (SMILES)
1 | 200 | O=C1C=C(OCc2ccccc2)CN1c1ccc2cc(-c3ccccc3C(F)(F)F)[nH]c(=O)c2c1 [Example 8, 7-(4-benzyloxy-2-oxo-2,5-dihydropyrrol-1-yl)-3-(2-trifluoromethylphenyl)-2H-isoquinolin-1-one]
2 | 530 | O=C1N(CCO)CCN1c1ccc2cc(-c3ccccc3C(F)(F)F)[nH]c(=O)c2c1 [Example 9, 7-[3-(2-hydroxyethyl)-2-oxoimidazolidin-1-yl]-3-(2-trifluoromethylphenyl)-2H-isoquinolin-1-one]
3 | 450 | O=C(OC[C@@H]1COC(=O)N1c1ccc2cc(-c3ccccc3C(F)(F)F)[nH]c(=O)c2c1)c1ccccc1 [Example 11, (R)-2-oxo-3-[1-oxo-3-(2-trifluoromethylphenyl)-1,2-dihydroisoquinolin-7-yl]oxazolidin-4-ylmethyl benzoate]
4 | 300 | O=C1O[C@@H](CO)CN1c1ccc2cc(-c3ccccc3C(F)(F)F)[nH]c(=O)c2c1 [Example 14, 7-((R)-5-hydroxymethyl-2-oxooxazolidin-3-yl)-3-(2-trifluoromethylphenyl)-2H-isoquinolin-1-one]
5 | 110 | O=C1CCCN1c1ccc2cc(-c3ccccc3C(F)(F)F)[nH]c(=O)c2c1 [Example 15, 7-(2-oxopyrrolidin-1-yl)-3-(2-trifluoromethylphenyl)-2H-isoquinolin-1-one]
6 | 21 | O=C1O[C@H](CO)CN1c1ccc2cc(-c3ccccc3OC(F)(F)F)[nH]c(=O)c2c1 [Example 27, 7-((S)-5-hydroxymethyl-2-oxooxazolidin-3-yl)-3-(2-trifluoromethoxyphenyl)-2H-isoquinolin-1-one]
7 | 91 | O=C1OC(CCO)CN1c1ccc2cc(-c3ccccc3C(F)(F)F)[nH]c(=O)c2c1 (stereo not shown) [Example 29, 7-[5-(2-hydroxyethyl)-2-oxooxazolidin-3-yl]-3-(2-trifluoromethylphenyl)-2H-isoquinolin-1-one]
8 | 530 | CC(=O)NCC1CN(c2ccc3cc(-c4ccccc4C(F)(F)F)[nH]c(=O)c3c2)C(=O)O1 (stereo not shown) [Example 32, N-{2-oxo-3-[1-oxo-3-(2-trifluoromethylphenyl)-1,2-dihydroisoquinolin-7-yl]oxazolidin-5-ylmethyl}acetamide]
9 | 290 | O=C1OC(CN2CCOCC2)CN1c1ccc2cc(-c3ccccc3C(F)(F)F)[nH]c(=O)c2c1 (stereo not shown) [Example 33, 7-(5-morpholin-4-ylmethyl-2-oxooxazolidin-3-yl)-3-(2-trifluoromethylphenyl)-2H-isoquinolin-1-one]
10 | 960 | CN1C(=O)N(c2ccc3cc(-c4ccccc4C(F)(F)F)[nH]c(=O)c3c2)C[C@@H]1COCc1ccccc1 [Example 35, 7-((R)-4-benzyloxymethyl-3-methyl-2-oxoimidazolidin-1-yl)-3-(2-trifluoromethylphenyl)-2H-isoquinolin-1-one]
11 | 310 | CN1C(=O)N(c2ccc3cc(-c4ccccc4C(F)(F)F)[nH]c(=O)c3c2)C[C@@H]1CO [Example 36, 7-((R)-4-hydroxymethyl-3-methyl-2-oxoimidazolidin-1-yl)-3-(2-trifluoromethylphenyl)-2H-isoquinolin-1-one]

Test system: human colon cancer cell line HCT116 transplanted into the inguinal subcutis
Experiment: Measurement of antitumor effect in tumor-bearing mouse
Type: in vivo, BALB/c nude mouse
Conditions: HCT116 xenograft, 300 mg/kg orally, twice (day 0 and 7 days after), vs control group
Description: A representative example of the compound group of the present invention was measured in terms of antitumor effect.
Such antitumor effect was examined, using a tumor-bearing mouse produced by transplanting the human colon cancer cell line HCT116 obtained from American Type Culture Collection (Virginia, U.S.A) into the inguinal subcutis of a BALB/c nude mouse purchased from Charles River Laboratories Japan, Inc. The purchased nude mouse was quarantined for 1 week. Thereafter, approximately 5×10^6 HCT116 cells were transplanted subcutaneously. When the size of a tumor thereof became 200 mm^3, the mouse was subjected to the present experiment.
Each compound was suspended in a solution to be administered, and 0.2 ml of the solution was orally administered. Such administration was carried out twice in total, that is, on the initiation date of administration and 7 days after the first administration. The antitumor effect was calculated as a tumor growth inhibition by comparing the agent-treated group with a control group in terms of tumor growth, on 14 days after the initiation date of administration. Tumor growth inhibition (TGI)=(1−the tumor growth amount of agent-treated group/the tumor growth amount of control group)×100(%) The results are shown in Table 7.

Row | Structure (SMILES) | TGI (%) obtained 14 days after administration [%]
12 | O=C1O[C@@H](CO)CN1c1ccc2cc(-c3ccccc3C(F)(F)F)[nH]c(=O)c2c1 [Example 14, 7-((R)-5-hydroxymethyl-2-oxooxazolidin-3-yl)-3-(2-trifluoromethylphenyl)-2H-isoquinolin-1-one] | 113

Test system: not listed separately
Experiment: Measurement of solubility (HPLC of filtrate)
Conditions: 50 mM sodium citrate-HCl buffer (pH 4.0), pH 4, aqueous buffer, thermodynamic from solid
Description: Measurement was carried out by preparing a four-point calibration curve (4,000 μM, 1,000 μM, 250 μM, and 31.3 μM) according to the internal standard method. A sample solution (100% DMSO) was freeze-dried, and each solution was then added thereto. The obtained mixture was stirred for 2 hours. Thereafter, a solution in which the sample had been dissolved was filtrated, and the filtrate was then analyzed with an analyzer. As an analysis method, the filtrate was measured by HPLC (HPLC). As dissolving solutions, a saline solution or a 50 mM sodium citrate-HCl buffer (pH 4.0) solution were used.

Row | solubility at 2 h [µM] | Structure (SMILES)
13 | > 2000 | CC(C)[C@H](N)C(=O)OC[C@H]1CN(c2ccc3cc(-c4ccccc4C(F)(F)F)[nH]c(=O)c3c2)C(=O)O1.Cl [Example B9, (R)-2-oxo-3-[1-oxo-3-(2-trifluoromethylphenyl)-1,2-dihydroisoquinolin-7-yl]oxazolidin-5-ylmethyl(S)-2-amino-3-methyl-butanoate hydrochloride]
14 | > 2000 | CNCC(=O)OC[C@@H]1CN(c2ccc3cc(-c4ccccc4C(F)(F)F)[nH]c(=O)c3c2)C(=O)O1.Cl [Example B20, (S)-2-oxo-3-[1-oxo-3-(2-trifluoromethylphenyl)-1,2-dihydroisoquinolin-7-yl]oxazolidin-5-ylmethyl methylaminoacetate hydrochloride]

Same assay, conditions: no asterisk: saline solution, stirred 2 hours

Row | Solubility [µM] | Structure (SMILES)
15 | >2000 | CC(C)(OC(=O)c1ccccc1C(=O)[O-])[C@@H]1CN(c2ccc3cc(-c4ccccc4C(F)(F)F)[nH]c(=O)c3c2)C(=O)O1.[Na+] [Example C6]

Same assay, conditions: saline solution, saline or isotonic, thermodynamic from solid

Row | solubility at 2 h [µM] | Structure (SMILES)
16 | > 2000 | O=C(OCCOCCOCCOCCOCCOCCO)OC[C@@H]1CN(c2ccc3cc(-c4ccccc4C(F)(F)F)[nH]c(=O)c3c2)C(=O)O1 [Example C45, 2-[2-(2-{2-[2-(2-hydroxyethoxy)ethoxy]ethoxy}ethoxy)ethoxy]ethyl carbonate (S)-2-oxo-3-[1-oxo-3-(2-trifluoromethylphenyl)-1,2-dihydroisoquinolin-7-yl]oxazolidin-5-ylmethyl ester]
